Assay results published in ChEMBL document CHEMBL1155960, “Design, synthesis and preliminary biological evaluation of acridine compounds as potential agents for a combined targeted chemo-radionuclide therapy approach to melanoma” (Bioorg Med Chem, 2008).

Assays:
[1] = mouse, in vivo, iv, 72 h
Description: Biodistribution in melanoma of C57BL/6 mouse bearing mouse B16-F0 cells at 0.74 to 0.92 MBq, iv after 72 hrs

[2] = system: Brain; conditions: mouse, in vivo, iv, 1 h
Description: Biodistribution in brain of C57BL/6 mouse bearing mouse B16-F0 cells at 0.74 to 0.92 MBq, iv after 1 hr

[3] = system: Brain; conditions: mouse, in vivo, iv, 3 h
Description: Biodistribution in brain of C57BL/6 mouse bearing mouse B16-F0 cells at 0.74 to 0.92 MBq, iv after 3 hrs

[4] = mouse, in vivo, iv, 1 h
Description: Biodistribution in intestinal content of C57BL/6 mouse bearing mouse B16-F0 cells at 0.74 to 0.92 MBq, iv after 1 hr

[5] = mouse, in vivo, iv, 3 h
Description: Biodistribution in intestinal content of C57BL/6 mouse bearing mouse B16-F0 cells at 0.74 to 0.92 MBq, iv after 3 hrs

[6] = mouse, in vivo, iv, 6 h
Description: Biodistribution in intestinal content of C57BL/6 mouse bearing mouse B16-F0 cells at 0.74 to 0.92 MBq, iv after 6 hrs

[7] = system: Liver; conditions: mouse, in vivo, iv, 3 h
Description: Biodistribution in liver of C57BL/6 mouse bearing mouse B16-F0 cells at 0.74 to 0.92 MBq, iv after 3 hrs

[8] = system: Liver; conditions: mouse, in vivo, iv, 24 h
Description: Biodistribution in liver of C57BL/6 mouse bearing mouse B16-F0 cells at 0.74 to 0.92 MBq, iv after 24 hrs

[9] = system: Muscle tissue; conditions: mouse, in vivo, iv, 1 h
Description: Biodistribution in muscle of C57BL/6 mouse bearing mouse B16-F0 cells at 0.74 to 0.92 MBq, iv after 1 hr

[10] = system: Muscle tissue; conditions: mouse, in vivo, iv, 3 h
Description: Biodistribution in muscle of C57BL/6 mouse bearing mouse B16-F0 cells at 0.74 to 0.92 MBq, iv after 3 hrs

[11] = system: Muscle tissue; conditions: mouse, in vivo, iv, 6 h
Description: Biodistribution in muscle of C57BL/6 mouse bearing mouse B16-F0 cells at 0.74 to 0.92 MBq, iv after 6 hrs

[12] = system: Lung; conditions: mouse, in vivo, iv, 1 h
Description: Biodistribution in lung of C57BL/6 mouse bearing mouse B16-F0 cells at 0.74 to 0.92 MBq, iv after 1 hr

[13] = system: Lung; conditions: mouse, in vivo, iv, 3 h
Description: Biodistribution in lung of C57BL/6 mouse bearing mouse B16-F0 cells at 0.74 to 0.92 MBq, iv after 3 hrs

[14] = system: Lung; conditions: mouse, in vivo, iv, 6 h
Description: Biodistribution in lung of C57BL/6 mouse bearing mouse B16-F0 cells at 0.74 to 0.92 MBq, iv after 6 hrs

[15] = system: Spleen; conditions: mouse, in vivo, iv, 1 h
Description: Biodistribution in spleen of C57BL/6 mouse bearing mouse B16-F0 cells at 0.74 to 0.92 MBq, iv after 1 hr

[16] = system: Spleen; conditions: mouse, in vivo, iv, 3 h
Description: Biodistribution in spleen of C57BL/6 mouse bearing mouse B16-F0 cells at 0.74 to 0.92 MBq, iv after 3 hrs

[17] = system: Kidney; conditions: mouse, in vivo, iv, 1 h
Description: Biodistribution in kidney of C57BL/6 mouse bearing mouse B16-F0 cells at 0.74 to 0.92 MBq, iv after 1 hr

[18] = system: Kidney; conditions: mouse, in vivo, iv, 3 h
Description: Biodistribution in kidney of C57BL/6 mouse bearing mouse B16-F0 cells at 0.74 to 0.92 MBq, iv after 3 hrs

[19] = system: Kidney; conditions: mouse, in vivo, iv, 6 h
Description: Biodistribution in kidney of C57BL/6 mouse bearing mouse B16-F0 cells at 0.74 to 0.92 MBq, iv after 6 hrs

[20] = system: Blood; conditions: mouse, in vivo, iv, 1 h
Description: Biodistribution in blood of C57BL/6 mouse bearing mouse B16-F0 cells at 0.74 to 0.92 MBq, iv after 1 hr

[21] = system: Blood; conditions: mouse, in vivo, iv, 3 h
Description: Biodistribution in blood of C57BL/6 mouse bearing mouse B16-F0 cells at 0.74 to 0.92 MBq, iv after 3 hrs

[22] = mouse, in vivo, iv, 1 h; remark: listed apart in the source
Description: Biodistribution in uvea of C57BL/6 mouse bearing mouse B16-F0 cells at 0.74 to 0.92 MBq, iv after 1 hr

[23] = mouse, in vivo, iv, 3 h; remark: listed apart in the source
Description: Biodistribution in uvea of C57BL/6 mouse bearing mouse B16-F0 cells at 0.74 to 0.92 MBq, iv after 3 hrs

[24] = mouse, in vivo, iv, 6 h; remark: listed apart in the source
Description: Biodistribution in uvea of C57BL/6 mouse bearing mouse B16-F0 cells at 0.74 to 0.92 MBq, iv after 6 hrs

[25] = mouse, in vivo, iv, 24 h
Description: Biodistribution in uvea of C57BL/6 mouse bearing mouse B16-F0 cells at 0.74 to 0.92 MBq, iv after 24 hrs

[26] = mouse, in vivo, iv, 72 h; remark: listed apart in the source
Description: Biodistribution in uvea of C57BL/6 mouse bearing mouse B16-F0 cells at 0.74 to 0.92 MBq, iv after 72 hrs

[27] = physchem; conditions: phosphate buffer solution, pH 7.4
Description: Partition coefficient, log P in phosphate buffer solution at pH 7.4

[28] = mouse, in vivo, iv, 72 h; remark: listed apart in the source
Description: Drug excretion in mouse B16-F0 cells bearing C57BL/6 mouse urine at 0.74 to 0.92 MBq, iv after 72 hrs

[29] = mouse, in vivo, iv, 72 h; remark: listed apart in the source
Description: Drug excretion in mouse B16-F0 cells bearing C57BL/6 mouse feces at 0.74 to 0.92 MBq, iv after 72 hrs

[30] = mouse, in vivo, iv, 1 h; remark: listed apart in the source
Description: Biodistribution in stomach content of C57BL/6 mouse bearing mouse B16-F0 cells at 0.74 to 0.92 MBq, iv after 1 hr

[31] = mouse, in vivo, iv, 3 h; remark: listed apart in the source
Description: Biodistribution in stomach content of C57BL/6 mouse bearing mouse B16-F0 cells at 0.74 to 0.92 MBq, iv after 3 hrs

[32] = mouse, in vivo, iv, 6 h; remark: listed apart in the source
Description: Biodistribution in stomach content of C57BL/6 mouse bearing mouse B16-F0 cells at 0.74 to 0.92 MBq, iv after 6 hrs

[33] = system: Liver; conditions: mouse, in vivo, iv, 1 h
Description: Biodistribution in liver of C57BL/6 mouse bearing mouse B16-F0 cells at 0.74 to 0.92 MBq, iv after 1 hr

[34] = system: Liver; conditions: mouse, in vivo, iv, 6 h
Description: Biodistribution in liver of C57BL/6 mouse bearing mouse B16-F0 cells at 0.74 to 0.92 MBq, iv after 6 hrs

Compound | Drug uptake [1] [% ID/g] | Drug uptake [2] [% ID/g] | Drug uptake [3] [% ID/g] | Drug uptake [4] [% ID/g] | Drug uptake [5] [% ID/g] | Drug uptake [6] [% ID/g] | Drug uptake [7] [% ID/g] | Drug uptake [8] [% ID/g] | Drug uptake [9] [% ID/g] | Drug uptake [10] [% ID/g] | Drug uptake [11] [% ID/g] | Drug uptake [12] [% ID/g] | Drug uptake [13] [% ID/g] | Drug uptake [14] [% ID/g] | Drug uptake [15] [% ID/g] | Drug uptake [16] [% ID/g] | Drug uptake [17] [% ID/g] | Drug uptake [18] [% ID/g] | Drug uptake [19] [% ID/g] | Drug uptake [20] [% ID/g] | also measured
CCN(CC)CCNC(=O)c1cccc2c(=O)c3cc(I)ccc3[nH]c12.Cl | 17.5 | 1.6 | 1.2 | 22.7 | 27.81 | 32.9 | 9.3 | 1.2 | 1.9 | 1.4 | 0.9 | 23.9 | 14 | 10 | 13.9 | 9.9 | 17.6 | 13 | 8.9 | 2.08 | Drug uptake [21]: 1.4 % ID/g; Drug uptake [22]: 15.2 % ID/g; Drug uptake [23]: 16.9 % ID/g; Drug uptake [24]: 19.5 % ID/g; Drug uptake [25]: 27.5 % ID/g; Drug uptake [26]: 26.4 % ID/g; logD [27]: 0.27
CCN(CC)CCNC(=O)c1cccc2c(=O)c3cc([125I])ccc3[nH]c12.Cl |  |  |  |  |  |  |  |  |  |  |  |  |  |  |  |  |  |  |  |  | Drug uptake [28]: 10.4 %ID; Drug uptake [29]: 38.4 %ID
CCN(CC)CCNC(=O)c1ccc(I)cc1.Cl | 0.88 | 1.5 | 0.8 | 7.4 | 3.7 | 3.3 | 3.3 | 0.4 | 1.3 | 0.4 | 0.1 | 5.5 | 2 | 1 | 4 | 0.8 | 7.3 | 3.1 | 1.6 | 1.1 | Drug uptake [30]: 10.1 % ID/g; Drug uptake [31]: 4.3 % ID/g; Drug uptake [32]: 4.5 % ID/g; Drug uptake [33]: 5.9 % ID/g; Drug uptake [34]: 2.6 % ID/g; Drug uptake [21]: 0.2 % ID/g; Drug uptake [22]: 13.1 % ID/g; Drug uptake [23]: 12 % ID/g; Drug uptake [24]: 13 % ID/g; Drug uptake [25]: 6.1 % ID/g; Drug uptake [26]: 3.8 % ID/g; Drug uptake [28]: 83.1 %ID; Drug uptake [29]: 4.8 %ID; logD [27]: 1.34
